From patent US5604262A, “Topical antimicrobial agents” (Research Corporation Technologies, Inc., priority 1995, dated 1997)
≈ marks a conversion by molar mass, not a printed value.

Experiments:
[1] = tested on: Streptococus mutans ATCC 25175; assay: MIC by two-fold serial broth dilution; assay type: cell-based; conditions: Streptococcus mutans, ATCC25175, 48 h; S. mutans; brain heart infusion broth; two days, turbidity OD 660 nm
Excerpt: (§1) The microorganisms tested were from the American Type Culture Collection (Rockville, Md.). They are Bacillus subtilis ATCC 9372, Brevibacterium ammoniagenes ATCC 6872, Staphylococcus aureus ATCC 12598, Streptococus mutans ATCC 25175, Propionibacterium acnes ATCC 11827, Pseudimonas aeruginosa ATCC 10145, Enterobacter aerogenes ATCC 13048, Eschericia coli ATCC 9637, Proteus vulgaris ATCC […], Saccharomyces cerevisiae ATCC 7754, Candida utilis ATCC 9226, Pityrosporum ovale ATCC 14521, Penicillium chrysogenum ATCC 10106 and Trichophyton mentagrophytes ATCC 18748.
(§2) The bacterial culture media except for S. mutans was 0.8% nutrient broth (BBL), 0.5% yeast Extract (Difco) and 0.1% glucose (NYG broth). S. mutans was cultured in 3.7% brain heart infixsion broth (Difco). All fungi, except P. ovale and T. mentagrophytes were cultured in a 2.5% malt extract broth (BBL). P. ovale was cultured in 1% bactopeptone (Difco), 0.5% yeast extract, 1% glucose and 0.1% corn oil. For T. mentagrophytes the culture media was 1% bactopeptone and 4% glucose.
(§3) Freeze dried samples were prepared for testing as follows. B. subtilis, S. cerevisiae, C. utilis, and P. ovale, were shake-cultured for two days at 30° C. P. chrysogenum and T. mentagrophytes were shake-cultured for 5 days at 30° C. B. ammoniagenes and E. aerogenes were stationarily cultured at 30° C. S. aureus, S. mutans, P. acnes, P. aeruginosa, E. coli and P. vulgaris were stationarily cultured at 37° C.
(§4) The minimum inhibitory concentration (MIC) of the 3-alken-2-ones (compounds 1-4, 6-8) and 3,13-tetradecadien-2-one (compound 5) was performed using a two-fold serial broth dilution. Each test compound was dissolved in DMF and 30 μL of this sample was dissolved in 3 mL of the applicable medium. A 30 μL sample of the previously described culture of each microorganism was added to the various medium solutions. After two days, the cultures of B. subtilis, S. cerevisiae, C. utilis B. ammoniagenes, E. aerogenes, S. aureus, S. mutans, P. acnes, P. aeruginosa, E. coli and P. vulgaris were examined for turbidity (OD at 660 nm). The fungi, P. ovale, P. chrysogenum and T. mentagrophytes, were examined visually for growth at 3 days (P. ovale) and 5 days (P. chrysogenum and T. mentagrophytes). The MIC was determined as the lowest concentration for each compound that no growth was observed. The highest concentration used in these tests was 800 μg/mL.

[2] = tested on: Bacillus subtilis ATCC 9372; assay: MIC by two-fold serial broth dilution; assay type: cell-based; conditions: Bacillus subtilis, ATCC9372, 48 h; B. subtilis; NYG broth; two days, turbidity OD 660 nm
Excerpt: as §1, §2, §3, §4

[3] = tested on: Trichophyton mentagrophytes ATCC 18748; assay: MIC by two-fold serial broth dilution; assay type: cell-based; conditions: ATCC18748, 120 h, T. mentagrophytes, bactopeptone/glucose, 5 days, visual
Excerpt: as §1, §2, §3, §4

[4] = tested on: Proteus vulgaris ATCC 133315; assay: MIC by two-fold serial broth dilution; assay type: cell-based; conditions: ATCC133315, 48 h, P. vulgaris, NYG broth, two days, turbidity OD 660 nm
Excerpt: as §1, §2, §3, §4

[5] = tested on: Brevibacterium ammoniagenes ATCC 6872; assay: MIC by two-fold serial broth dilution; assay type: cell-based; conditions: Corynebacterium ammoniagenes, ATCC6872, 48 h; B. ammoniagenes; NYG broth; two days, turbidity OD 660 nm
Excerpt: as §1, §2, §3, §4

[6] = tested on: Enterobacter aerogenes ATCC 13048; assay: MIC by two-fold serial broth dilution; assay type: cell-based; conditions: Klebsiella aerogenes, ATCC13048, 48 h; E. aerogenes; NYG broth; two days, turbidity OD 660 nm
Excerpt: as §1, §2, §3, §4

[7] = tested on: Propionibacterium acnes ATCC 11827; assay: MIC by two-fold serial broth dilution; assay type: cell-based; conditions: P. acnes
Excerpt: as §1, §2, §3, §4

[8] = tested on: Pseudimonas aeruginosa ATCC 10145; assay: MIC by two-fold serial broth dilution; assay type: cell-based; conditions: Pseudomonas aeruginosa, ATCC10145, 48 h; P. aeruginosa; NYG broth; two days, turbidity OD 660 nm
Excerpt: as §1, §2, §3, §4

[9] = tested on: Pityrosporum ovale ATCC 14521; assay: MIC by two-fold serial broth dilution; assay type: cell-based; conditions: 72 h; P. ovale; bactopeptone/yeast extract/glucose/corn oil; 3 days, visual
Excerpt: as §1, §2, §3, §4

[10] = tested on: Eschericia coli ATCC 9637; assay: MIC by two-fold serial broth dilution; assay type: cell-based; conditions: Escherichia coli, ATCC9637, 48 h; E. coli; NYG broth; two days, turbidity OD 660 nm
Excerpt: as §1, §2, §3, §4

[11] = tested on: Saccharomyces cerevisiae ATCC 7754; assay: MIC by two-fold serial broth dilution; assay type: cell-based; conditions: Saccharomyces cerevisiae, ATCC7754, 48 h; S. cerevisiae; malt extract broth; two days, turbidity OD 660 nm
Excerpt: as §1, §2, §3, §4

[12] = tested on: Penicillium chrysogenum ATCC 10106; assay: MIC by two-fold serial broth dilution; assay type: cell-based; conditions: Penicillium chrysogenum, ATCC10106, 120 h; P. chrysogenum; malt extract broth; 5 days, visual
Excerpt: as §1, §2, §3, §4

[13] = tested on: Staphylococcus aureus ATCC 12598; assay: MIC by two-fold serial broth dilution; assay type: cell-based; conditions: Staphylococcus aureus, ATCC12598, 48 h; S. aureus; NYG broth; two days, turbidity OD 660 nm
Excerpt: as §1, §2, §3, §4

Candia utilis ATCC 9226 = assay: MIC by two-fold serial broth dilution; assay type: cell-based, Candida utilis; conditions: Williopsis jadinii, ATCC9226, 48 h; C. utilis; malt extract broth; two days, turbidity OD 660 nm
Excerpt: as §1, §2, §3, §4

[14] = tested on: bacteria and fungi in the test, except S. mutans and P. acnes; assay: MIC test, all bacteria and fungi except S. mutans and P. acnes; assay type: cell-based; conditions: all of the bacteria and fungi in the test
Excerpt: as §1, §2
Freeze dried samples were prepared for testing as follows. […]
The minimum inhibitory concentration (MIC) of the 3-alken-2-ones (compounds 1-4, 6-8) and 3,13-tetradecadien-2-one (compound 5) was performed using a two-fold serial broth dilution. […] The MIC was determined as the lowest concentration for each compound that no growth was observed. […]

Pr. acnes = conditions: Kubo et al. 1994; cited from earlier work
S. mutans = conditions: Kubo et al. 1993; cited from earlier work
[15] = background statement; cited from earlier work

## CCCCCCCCCCCCC/C=C/C(C)=O [Compound 8, (E)-3-Heptadecen-2-one]
[1]
  MIC: 800 µg/mL (≈ 3.17 mM)
[2]
  MIC: > 800 µg/mL
[3]
  MIC: > 800 µg/mL
[4]
  MIC: > 800 µg/mL
[5]
  MIC: > 800 µg/mL
[6]
  MIC: > 800 µg/mL
[7]; Cutibacterium acnes, ATCC11827, 48 h, NYG broth, two days, turbidity OD 660 nm
  MIC: 3.13 µg/mL (≈ 0.0124 mM)
[7]
  activity (in words): strong activity
[8]
  MIC: > 800 µg/mL
[9]
  MIC: > 800 µg/mL
[10]
  MIC: > 800 µg/mL
[11]
  MIC: > 800 µg/mL
[12]
  MIC: > 800 µg/mL
[13]
  MIC: > 800 µg/mL
Candia utilis ATCC 9226
  MIC: > 800 µg/mL
[14]
  activity (in words): inactive

## CC(C)=CCCC(C)=CCCC(C)=CCO [farnesol]
Pr. acnes
  activity against Pr. acnes (in words): exhibited activity

## CC(C)=CCCC(C)=CCCC(C)=CCCC(C)O (centres unmarked) [farnesyl acetol]
Pr. acnes
  activity against Pr. acnes (in words): exhibited activity

## CC(=O)CCC=C(C)CCC=C(C)CCC=C(C)C [farnesylacetone]
Pr. acnes
  activity against Pr. acnes (in words): inactive

## CC(C)=CCCC(C)=CCCC(C)O (centres unmarked) [geranylacetol]
Pr. acnes
  activity against Pr. acnes (in words): exhibited activity

## CC(=O)/C=C/C1C(C)=CCCC1(C)C (stereo not drawn) [α-ionone]
S. mutans
  antibacterial activity (in words): moderate antibacterial activity

## CC(=O)/C=C/C1=C(C)CCCC1(C)C [β-ionone]
S. mutans
  antibacterial activity (in words): moderate antibacterial activity

## ionone
[15]
  allergic skin reactions: can cause allergic skin reactions
